Data published in ChEMBL document CHEMBL4831556, “Discovery of a Novel Potent and Selective Calcium Release-Activated Calcium Channel Inhibitor: 2,6-Difluoro-N-(2'-methyl-3'-(4-methyl-5-oxo-4,5-dihydro-1,3,4-oxadiazol-2-yl)-[1,1'-biphenyl]-4-yl)benzamide. Structure-Activity Relationship and Preclinical Characterization” (J Med Chem, 2021).
“And” between values parts separate entries of the source, which are not always exact repeats. Equal entries are not always repeated.

Assays:
[1] = Cmax in BALB/c mouse model of mBSA-induced delayed type hypersensitivity at 10 mg/kg, po administered twice daily for 7 days followed by mBSA challenge and measured after 24 hrs; format: ADME, organism-based; set-up: route oral, dose 10 mg/kg, time 8 day; conditions: in vivo
[2] = AUClast in BALB/c mouse model of mBSA-induced delayed type hypersensitivity at 3 mg/kg, po administered twice daily for 7 days followed by mBSA challenge and measured after 24 hrs; format: ADME, organism-based; set-up: route oral, time 8 day, dose 3 mg/kg; conditions: in vivo
[3] = Cmax in CFA-induced rheumatoid arthritis Lewis rat model at 1 mg/kg, po administered once daily for 15 days; format: ADME, organism-based; set-up: route oral, dose 1 mg/kg, time 15 day; conditions: in vivo
[4] = AUClast in CFA-induced rheumatoid arthritis Lewis rat model at 3 mg/kg, po administered once daily for 15 days; format: ADME, organism-based; set-up: route oral, time 15 day, dose 3 mg/kg; conditions: in vivo
[5] = AUClast in rat at 1 mg/kg/day; format: ADME, organism-based; set-up: time 0 - last, dose 1 mg/kg/day; conditions: in vivo
[6] = Cmax in human whole blood at 80 mg, bid; format: ADME, tissue-based; set-up: dose 80 mg
[7] = Cmax in human whole blood at 80 mg, qd; format: ADME, tissue-based; set-up: dose 80 mg
[8] = Trough concentration in human whole blood at 80 mg, qd; format: ADME, tissue-based; conditions: read-out: Cmin
[9] = Half life in Lewis rat at 10 mg/kg, po measured upto 24 hrs by LC-MS/MS analysis; format: ADME, organism-based; conditions: in vivo

| Structure (SMILES) | Cmax [1] [nM] | AUC(0-t) at 192 h [2] [µM·h] | Cmax [3] [nM] | AUC(0-t) at 360 h [4] [µM·h] | AUC(0-t) [5] | Cmax [6] [nM] | Cmax [7] [nM] | concentration [8] [nM] | half-life [9] [h] |
| --- | --- | --- | --- | --- | --- | --- | --- | --- | --- |
| Cc1c(-c2ccc(NC(=O)c3c(F)cccc3F)cc2)cccc1-c1nn(C)c(=O)o1 | 3300 | 8.3 | 2000 | 80 | 36 µM·h and 15200 ng·h/mL | 1570 | 950 | 185 | – |
| Cc1c(-c2ccc(NC(=O)c3c(F)cccc3Cl)cc2)cccc1-c1nn(C)c(=O)o1 | – | – | – | – | – | – | – | – | 16 |
